Experimental data taken from US20260297060A1, “COMPOUNDS FOR THE DEGRADATION OF MUTANT BRAF” (C4 THERAPEUTICS, INC., priority 2023, published 2026).
Like-named read-outs stand apart in the source and are kept apart here.

Assays:
Assay type in all cases: in vivo, BALB/c nude mice
[1] = tested on: A375 human melanoma xenografts; assay: Example 8 efficacy study in A375 human melanoma xenografts (tumor volume, T/C, TGI); conditions: 10 mg/kg, p.o.
Protocol: For efficacy study, agents were tested in the A375 human melanoma xenografts model. Compound 8, Compound 26, and Compound 38 were administered to BALB/c nude mice bearing A375 xenografts from day 0 and dosed p.o. twice per day (BID). Compound 8 and Compound 26 were dosed at 10 mg/kg for 21 days. Compound 38 was dosed at 10 mg/kg for 10 days. The known BRAF inhibitor encorafenib was used as a positive control. encorafenib was administered from day 1 and dosed p.o. daily (QD) for 21 days and dosed at 35 mg/kg.
The A375 tumor cells were maintained in vitro in DMEM medium supplemented with […] and 1% Penicillin-Streptomycin at 37° C. in an atmosphere of 5% CO2 in air. The tumor cells were routinely subcultured twice weekly. The cells growing in an exponential growth phase were harvested and counted for tumor inoculation.
Each mouse was inoculated subcutaneously at the right flank with A375 cells (5×10^6) in 0.2 mL of PBS supplemented with Matrigel (PBS:Matrigel=1:1) for tumor development. Animals were grouped for treatment 16 days after tumor inoculation when the average tumor volume reached 234 mm^3 for efficacy study and 382 mm^3 for PKPD study. The test articles administration and the animal numbers in each group are shown in the above experimental tables.
Prior to the onset of drug treatment, mice were measured for tumor size in two dimensions using a caliper, and the tumor volume (mm^3) was calculated using formula V=0.5 a×b^2 where a and b are the long and short diameters of the tumor in mm, respectively. Mice were randomized into different treatment groups based on the tumor volume.
The major endpoint was to see if the tumor growth could be delayed or mice could be cured. The tumor size was then used for calculations of T/C value. The T/C value (in percent) is an indication of antitumor effectiveness; T and C are the mean volumes of the treated and control groups, respectively on specified day.
TGI was calculated for each group using the formula: TGI (%)=[1−(Ti−T0)/(Ci−C0)]×100; Ti is the average tumor volume of a treatment group on a given day, T0 is the average tumor volume of the treatment group on the day of treatment start, Ci is the average tumor volume of the vehicle control group on the same day with Ti, and C0 is the average tumor volume of the vehicle group on the day of treatment start.

[2] = Example 9 pharmacokinetics assay for the PK and PD study Part I, II and III (plasma, tumor, liver); conditions: mouse, po, 10 mg/kg, p.o., single dose, ± SEM
Protocol: For the PK and PD study Part I, agents were administered to BALB/c nude mice bearing A375 human melanoma xenografts tumors. Dabrafenib, Compound 218 and Compound 157 were dosed via p.o. once on day 1. Dabrafenib was dosed at 100 mg/kg. Compound 218 and Compound 157 were dosed at 10 mg/kg.
For the PK and PD study Part II, agents were administered to BALB/c nude mice bearing A375 human melanoma xenografts tumors. Compound 133, Compound 144 and Compound 198 were dosed at 10 mg/kg via p.o. once on day 1.
For the PK and PD study Part III, agent was administered to BALB/c nude mice bearing A375 human melanoma xenografts tumors. Compound 204 were dosed at 10 mg/kg via p.o. once on day 1.
(§1) The plasma samples were collected at predetermined time points for PK analysis. The mice were euthanized at predetermined time points post the treatment. The blood samples were collected into the 1.5 mL Eppendorf tubes containing 15 μL of 0.5 M EDTA-K2. And then the anticoagulant blood samples were centrifuged at 2,500 g at 4° C. for 15 minutes. The plasma samples were separated into 2 aliquots. The 1st was used for PK analysis, and the 2nd served as backup. The samples were stored at −80° C. before bioanalysis.
The tumor samples were collected at predetermined time points for PK and WB analysis. The tumor was dissected out and split into 3 parts. The 1st part was used for PK analysis, the 2nd part was used for WB analysis and the last one served as backup for study. The samples were transferred into pre-labeled tubes and quickly froze in liquid nitrogen within 2 minutes after dissection. The samples were stored at −80° C. before bioanalysis.
(§2) Liver samples were collected at predetermined time points for PK analysis. The left lobe of the liver was dissected out and split into 2 parts. The 1st part was used for PK analysis and the 2nd part served as the backup for the study. The samples were transferred into pre-labeled tubes and quickly froze in liquid nitrogen within 2 minutes after dissection. The samples were stored at −80° C. before bioanalysis.
The harvested plasma, tumor and liver samples were processed for pharmacokinetics analysis by LC-MS/MS with a concentration range of 5.00-10,000 ng/mL for Compound 218, Compound 157 and Compound 133 in plasma, 0.500-1,000 ng/ml for Compound 218 in liver and tumor homogenate, 0.200-400 ng/mL for Compound 157, Dabrafenib and Compound 133 in liver and tumor homogenate, 0.500-1000 ng/mL for Dabrafenib and Compound 204 in plasma, 0.200-200 ng/mL for Compound 204 in liver and tumor homogenate, 20.0-20,000 ng/mL for Compound 144 and Compound 198 in plasma, 1.00-1,000 ng/mL for Compound 144 and Compound 198 in liver and tumor homogenate.

[3] = Example 9 pharmacokinetics assay for efficacy study Part I and II (plasma, liver); conditions: mouse, po, 10 mg/kg, p.o., BID × 14 days, 6 h following treatment, ± SEM
Protocol: For efficacy study Part I, agents were tested in the A375 human melanoma xenografts. Compound 218 and Compound 157 were administered to BALB/c nude mice bearing A375 xenografts from day 0 and dosed twice a day (BID) for 14 days. Compound 218 and Compound 157 were dosed at 10 mg/kg via p.o.. Dabrafenib was administered from day 1 daily (QD) for 14 days and dosed at 100 mg/kg via p.o..
For efficacy study Part II, agents were tested in the A375 human melanoma xenografts model. Compound 133, Compound 144 and Compound 198 were administered to BALB/c nude mice bearing A375 xenografts from day 0 and dosed twice a day (BID) for 14 days. Compound 133, Compound 144 and Compound 198 were dosed at 10 mg/kg via p.o..
as §1, §2
The harvested plasma and liver samples were processed for pharmacokinetics analysis by LC-MS/MS with a concentration range of 1.00-1,000 ng/mL for Dabrafenib in plasma and liver homogenate, 10.0-10,000 ng/mL for Compound 218, Compound 157, Compound 133, Compound 144 and Compound 198 in plasma and liver homogenate.

[4] = liver, read-out: Mean Concentration in Liver
[5] = plasma, read-out: Mean Concentration in Plasma
[6] = tumor, read-out: Mean Concentration in Tumor

concentration at 6 h [2, 4] | concentration at 12 h [2, 4] | concentration at 1 h [2, 5] | concentration at 6 h [2, 5] | concentration at 12 h [2, 5] | concentration at 1 h [2, 6] | concentration at 6 h [2, 6] | concentration at 12 h [2, 6] | Structure (SMILES) | T/C ([1]; BID × 21 days, PG-D21) | TGI ([1]; BID × 21 days, PG-D21) | Tumor Size on PG-D21 (Mean ± SEM) ([1]; BID × 21 days, PG-D21) | Tumor Volume (mean ± SEM) ([1]; BID × 21 days, day 0) | Tumor Volume (mean ± SEM) ([1]; BID × 21 days, day 3) | Tumor Volume (mean ± SEM) ([1]; BID × 21 days, day 6) | Tumor Volume (mean ± SEM) ([1]; BID × 21 days, day 9) | Tumor Volume (mean ± SEM) ([1]; BID × 21 days, day 13) | Tumor Volume (mean ± SEM) ([1]; BID × 21 days, day 17) | Tumor Volume (mean ± SEM) ([1]; BID × 21 days, day 21) | further results
 |  |  |  |  |  |  |  | CCN(C)S(=O)(=O)Nc1ccc(F)c(Oc2ccc3ncn(C4CC5(CCN(C6CCC(c7cc8c(cc7F)c(N7CCC(=O)NC7=O)nn8C)CC6)CC5)C4)c(=O)c3c2)c1C#N (single isomer, unassigned) [Compound 8, 6-[2-cyano-3-[[ethyl(methyl)sulfamoyl]amino]-6-fluoro-phenoxy]-3-[7-[4-[3-(2,4-dioxohexahydropyrimidin-1-yl)-5-fluoro-1-methyl-indazol-6-yl]cyclohexyl]-7-azaspiro[3.5]nonan-2-yl]-4-oxo-quinazoline] | 1.29% | 114.48% | 22 ± 3 mm^3 | 234 ± 7 mm^3 | 185 ± 6 mm^3 | 105 ± 9 mm^3 | 57 ± 4 mm^3 | 32 ± 4 mm^3 | 28 ± 3 mm^3 | 22 ± 3 mm^3 | 
 |  |  |  |  |  |  |  | CCN(C)S(=O)(=O)Nc1ccc(F)c(Oc2ccc3ncn([C@H]4COC5(CCC(N6CCC(c7cc8c(cc7F)c(N7CCC(=O)NC7=O)nn8C)C(F)(F)C6)CC5)C4)c(=O)c3c2)c1C#N (single isomer, unassigned) [Compound 38] |  |  |  |  |  |  |  |  |  |  | T/C ([1]; BID × 10 days, PG-D9): 4.30%; TGI ([1]; BID × 10 days, PG-D9): 134.38%; Tumor Size on PG-D9 (mean ± SEM) ([1]; BID × 10 days, PG-D9): 35 ± 3 mm^3; Tumor Volume (mean ± SEM) ([1]; BID × 10 days, day 0): 234 ± 7 mm^3; Tumor Volume (mean ± SEM) ([1]; BID × 10 days, day 3): 134 ± 7 mm^3; Tumor Volume (mean ± SEM) ([1]; BID × 10 days, day 6): 67 ± 7 mm^3; Tumor Volume (mean ± SEM) ([1]; BID × 10 days, day 9): 35 ± 3^b mm^3
606 ± 73.4 ng/g | 291 ± 103 ng/g | 2070 ± 407 ng/mL | 104 ± 6.18 ng/mL | 32.9 ± 12.1 ng/mL | 74.7 ± 16.5 ng/g | 112 ± 11 ng/g | 45 ± 9.93 ng/g | CCN(C)S(=O)(=O)Nc1ccc(F)c(Oc2ccc3ncn(C4CC5(C4)CN(C4CCC(c6cc7c(cc6F)c(N6CCC(=O)NC6=O)nn7C)CC4)C5)c(=O)c3c2)c1C#N (single isomer, unassigned) [Compound 204, 6-[2-cyano-3-[[ethyl(methyl)sulfamoyl]amino]-6-fluoro-phenoxy]-3-[2-[4-[3-(2,4-dioxohexahydropyrimidin-1-yl)-5-fluoro-1-methyl-indazol-6-yl]cyclohexyl]-2-azaspiro[3.3]heptan-6-yl]-4-oxo-quinazoline] |  |  |  |  |  |  |  |  |  |  | 
5710 ± 300 ng/g | 972 ± 40.9 ng/g | 6310 ± 978 ng/mL | 1750 ± 96.1 ng/mL | 206 ± 11.5 ng/mL | 1850 ± 164 ng/g | 1360 ± 21.9 ng/g | 268 ± 26.7 ng/g | CCN(C)S(=O)(=O)Nc1ccc(F)c(Oc2ccc3ncc(OC4CC5(CCN(C6CCC(c7cc8c(cc7F)c(N7CCC(=O)NC7=O)nn8C)CC6)CC5)C4)nc3c2)c1C#N (single isomer, unassigned) [Compound 218, 7-[2-cyano-3-[[ethyl(methyl)sulfamoyl]amino]-6-fluoro-phenoxy]-2-[[7-[4-[3-(2,4-dioxohexahydropyrimidin-1-yl)-5-fluoro-1-methyl-indazol-6-yl]cyclohexyl]-7-azaspiro[3.5]nonan-2-yl]oxy]quinoxaline] |  |  |  |  |  |  |  |  |  |  | concentration at 6 h [3, 4]: 5640 ± 588 ng/g; concentration at 6 h [3, 5]: 2270 ± 201 ng/mL; concentration at 24 h [2, 5]: 6.2 ± 3.47 ng/mL; concentration at 24 h [2, 6]: 13.4 ± 4.31 ng/g
 |  |  |  |  |  |  |  | CCN(C)S(=O)(=O)Nc1ccc(F)c(Oc2ccc3ncn([C@H]4COC5(CCN(C6CC7(C6)CN(c6cc8c(cc6F)c(N6CCC(=O)NC6=O)nn8C)C7)CC5)C4)c(=O)c3c2)c1C#N [Compound 26, (3R)-3-[6-[2-cyano-3-[[ethyl(methyl)sulfamoyl]amino]-6-fluoro-phenoxy]-4-oxo-quinazolin-3-yl]-8-[2-[3-(2,4-dioxohexahydropyrimidin-1-yl)-5-fluoro-1-methyl-indazol-6-yl]-2-azaspiro[3.3]heptan-6-yl]-1-oxa-8-azaspiro[4.5]decane] | 0.97% | 114.89% | 16 ± 2 mm^3 | 234 ± 7 mm^3 | 148 ± 10 mm^3 | 57 ± 4 mm^3 | 33 ± 3 mm^3 | 21 ± 2 mm^3 | 18 ± 1 mm^3 | 16 ± 2 mm^3 | 
